Reference: patent US20240012010A1, “METHODS OF MONITORING ALPHA-1 ANTITRYPSIN (AAT) DEFICIENCY BY MEASURING POLYMERISED AAT” (Vertex Pharmaceuticals Incorporated, priority 2020, published 2024)

Target: T1, AAT polymer (Z variant of the human allele of AAT) (Homo sapiens, UniProt P01009, E366K/V237A)
T1 construct: At study termination, plasma was collected via cardiac puncture; from tissue; host or cells: plasma of transgenic PiZ mice (C57BL/6 background) carrying the human SERPINA1 Z gene
Assay: Pharmacodynamic effect of Compound 2 treatment on polymer levels in a PiZ mouse model (polymer sandwich ELISA of plasma)
Type: in vivo
Settings: male PiZ hemizygous mice
Method: Eleven week-old male PiZ mice, hemizygous for the Z variant of the human allele of AAT, were orally administered a suspension of either vehicle or Compound 2 QD at 50 and 100 mg/kg/day for 72 hours or 5, 16, 50, and 100 mg/kg/day for 28 days. At study termination, plasma was collected via cardiac puncture and liver tissue was collected and preserved in 10% neutral buffered formalin.
Liver polymer staining was assessed as the % area of liver tissue that stains positively by monoclonal antibody 2C1 immunohistochemistry.
High bind EIA/RIA microplates (Costar, 3590) were coated with 100 μL mouse monoclonal anti-human AAT polymer antibody (Hycult Biotech, HM2289, clone 2C1) diluted to 2 μg/mL in carbonate-bicarbonate buffer (0.2M, pH 9.4) and incubated for 90 minutes at 37° C. (while shaking) or alternatively overnight (up to 72 hours) at 4° C. (still). […] Following color development, 100 μL 1N sulfuric acid was added to stop the reaction and absorbance was immediately measured at 450 nm and 650 nm for background subtraction with a microplate reader (Molecular Devices, SpectraMax M3). […]

T1 sequence (P01009 25-418 V237A/E366K): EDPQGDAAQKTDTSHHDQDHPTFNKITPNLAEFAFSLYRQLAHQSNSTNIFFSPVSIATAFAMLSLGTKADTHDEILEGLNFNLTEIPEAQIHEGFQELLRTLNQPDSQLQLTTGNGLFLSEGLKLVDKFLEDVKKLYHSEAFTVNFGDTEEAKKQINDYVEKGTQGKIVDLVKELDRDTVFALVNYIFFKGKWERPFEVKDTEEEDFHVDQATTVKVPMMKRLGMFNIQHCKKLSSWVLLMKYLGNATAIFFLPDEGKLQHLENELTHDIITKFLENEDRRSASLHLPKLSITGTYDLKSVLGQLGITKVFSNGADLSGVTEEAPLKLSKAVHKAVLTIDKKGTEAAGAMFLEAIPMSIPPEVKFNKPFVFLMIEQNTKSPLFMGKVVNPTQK

AAT plasma polymer levels (QD 5, 16, 50 and 100 mg/kg/day PO for 28 days, vs vehicle (FIG. 5B)): dose response decrease | AAT plasma polymer levels (QD 50 and 100 mg/kg/day PO for 72 hours, vs vehicle (FIG. 5A)): dose response decrease
SMILES: O=C(O)c1ccc(-c2c(C3CCOCC3)n(-c3ccc(F)c(F)c3)c3cc4cn[nH]c4cc23)cc1 [Compound 2]
